Assay results as given in US11129820B2, “Ferroportin-inhibitor salts” (Vifor (International) AG, priority 2017, dated 2021).
Marks after values point to notes of the source that are not given here.

What was measured:
Hbb th3/+ mice = assay: Mouse model of β-thalassemia intermedia (Hbb th3/+ mice); format: in vivo; details: for Decrease in RDW by 20/60 mg/kg compound / Decrease in ^58Fe spleen iron content by 20/60 mg/kg compound / Decrease in blood reticulocyte counts by 20/60 mg/kg compound / Decrease in leukocyte counts by 20/60 mg/kg compound / Decrease in serum erythropoietin by 20/60 mg/kg compound / Increase in blood erythrocyte counts by 20/60 mg/kg compound / Increase in hematocrit by 20/60 mg/kg compound / Prevention of liver ^58Fe loading by 20/60 mg/kg / Decrease in serum iron by 20/60 mg/kg compound / Decreased in ROS in bone marrow erythrocytes / Decrease in relative spleen weight by 20/60 mg/kg: % change to vehicle; for Correction of anemia at day 20-48 by 20/60 mg/kg: hemoglobin difference to vehicle; for Decrease in serum iron by 20/60 mg/kg compound: dosed for 3 h
Description: The efficacy of Fpn inhibitors is investigated using a mouse model of transfusion-independent β-thalassemia. Mice with heterozygous deletion of β 1 and β 2 globin genes (called Hbb th3/+ mice) develop transfusion-independent anemia, ineffective erythropoiesis, splenomegaly and secondary iron overload in spleen, liver and kidneys. […] Hbb th3/+ mice are dosed twice daily with either compound at 20 or 60 mg/kg or with methylcellulose (10 ml/kg, Sigma, Cat. 274429) as a vehicle. Between both doses mice have access to drinking water supplemented with 1 mM ^58Fe(II)-sulfate (Vifor Pharma, Batch No. ROR 3096) and 10 mM ascorbic acid (Sigma, Cat. 795437) for 6 h. The concentration of ^58Fe(II)-Sulfate supplied in the drinking water is adjusted to substitute for intake of standard rodent diet with iron content of 250 ppm. Water without ^58Fe(II)-Sulfate and ascorbic acid is provided during the remaining 18 h. Dosing of Fpn inhibitors or vehicle followed by exposure to iron-containing water is repeated for 20 to 46 days in individual experiments.
Additional hematologic parameters are measured in terminal blood using automated blood cell analyzer.
The inefficient erythropoiesis of Hbb th3/+ mice causes excessive proliferation of erythroid precursors in spleen, leading to splenomegaly.
Elevated erythropoietin levels in Hbb th3/+ mice induce overexpression of erythroferrone, an erythroid regulator hormone known to suppress hepcidin (Kautz L. et al, Nat. Genet., 2014). […] Erythroferrone is produced by erythrocyte precursors proliferating massively in spleens of Hbb th3/+ mice as a consequence of extramedullar erythropoiesis.
Increased iron demand due to inefficient erythropoiesis and chronically low hepcidin levels in patients with thalassemia causes organ iron loading and associated morbidities, such as hepatocellular carcinoma and heart failure (Rivella S. Haematologica, 2015). Hbb th3/+ mice absorb excessive amounts of iron as a consequence of inadequately low hepcidin levels relative to the high iron content in liver, spleen and kidney and increased ferroportin expression in duodenum (Gardenghi S., Blood, 2007).
Additionally, reactive oxygen species (ROS) are detected in bone marrow cells using a fluorescent indicator, CM-H2DCFDA (Thermo Fisher Scientific, Cat. C6827).
Data are expressed as difference to the vehicle control group for hemoglobin and as % change to the vehicle control group for all other parameter shown

anemic Wistar rats = assay: Prevention of iron absorption in anemic rats; format: in vivo, rat; details: n=5
Description: To assess the in vivo efficacy of ferroportin (Fpn) inhibitors to block iron absorption, a series of Fpn inhibitors is tested in an anemic rat model for iron absorption. Wistar rats (3-4 weeks old, n=5, Janvier Labs) are fed a low iron diet (Provimi-Kliba, Cat. 2039) until their hemoglobin (Hb) values reach 7-8 g/dl one day before dosing of the Fpn inhibitor compounds. One hour before oral application of 0.5 mg/kg of ferrous sulfate, test compounds formulated in methyl cellulose or Cremophor are dosed orally. Blood samples are taken by tail vein puncture one hour before administration of iron (−1 h), immediately after dosing of the Fpn inhibitors (0 h) and one hour (1 h), three hours (3 h) and occasionally up to 6 hours (6 h) after dosing of the test compounds. Serum iron levels are measured (Abbott Diagnostics, Cat. 6K95) and inhibition of the rise of serum iron three hours after dosing of the test compound is calculated as a measure for efficacy of the Fpn inhibitors in blocking iron absorption (Table 7).

[1] = 20 mg/kg twice daily for 20-46 days
[2] = 60 mg/kg twice daily for 20-46 days
[3] = first value of the pair (20 mg/kg; dose not printed in this line)
[4] = second value of the pair (60 mg/kg; dose not printed in this line)

Compound: O=C(NCc1ncccc1F)c1cnc(CCNCCc2nc3ccccc3[nH]2)o1 [Example Compound No. 1]
- Decrease in RDW by 20/60 mg/kg compound (Hbb th3/+ mice; [1]): 3%
- Decrease in ^58Fe spleen iron content by 20/60 mg/kg compound (Hbb th3/+ mice; [1]): 14%
- Decrease in blood reticulocyte counts by 20/60 mg/kg compound (Hbb th3/+ mice; [1]): 8%
- Decrease in leukocyte counts by 20/60 mg/kg compound (Hbb th3/+ mice; [1]): 32%
- Decrease in serum erythropoietin by 20/60 mg/kg compound (Hbb th3/+ mice; [1]): 64%
- Increase in blood erythrocyte counts by 20/60 mg/kg compound (Hbb th3/+ mice; [1]): 4%
- Increase in hematocrit by 20/60 mg/kg compound (Hbb th3/+ mice; [1]): 0%
- Prevention of liver ^58Fe loading by 20/60 mg/kg (Hbb th3/+ mice; [1]): 12%
- Correction of anemia at day 20-48 by 20/60 mg/kg (Hbb th3/+ mice; 20 mg/kg twice daily): 6 g/L
- Decrease in serum iron by 20/60 mg/kg compound (Hbb th3/+ mice; 20 mg/kg): 49%
- Decrease in RDW by 20/60 mg/kg compound (Hbb th3/+ mice; [2]): 16%
- Decrease in ^58Fe spleen iron content by 20/60 mg/kg compound (Hbb th3/+ mice; [2]): 48%
- Decrease in blood reticulocyte counts by 20/60 mg/kg compound (Hbb th3/+ mice; [2]): 39%
- Decrease in leukocyte counts by 20/60 mg/kg compound (Hbb th3/+ mice; [2]): 44%
- Decrease in serum erythropoietin by 20/60 mg/kg compound (Hbb th3/+ mice; [2]): 78%
- Increase in blood erythrocyte counts by 20/60 mg/kg compound (Hbb th3/+ mice; [2]): 8%
- Increase in hematocrit by 20/60 mg/kg compound (Hbb th3/+ mice; [2]): 4%
- Prevention of liver ^58Fe loading by 20/60 mg/kg (Hbb th3/+ mice; [2]): 40%
- Correction of anemia at day 20-48 by 20/60 mg/kg (Hbb th3/+ mice; 60 mg/kg twice daily): 20 g/L
- Decrease in serum iron by 20/60 mg/kg compound (Hbb th3/+ mice; 60 mg/kg): 66%
- Decreased in ROS in bone marrow erythrocytes (Hbb th3/+ mice; [3]): 20%
- Decreased in ROS in bone marrow erythrocytes (Hbb th3/+ mice; [4]): 45%
- Serum Iron Inhibition (%) at 3 h (anemic Wistar rats; Dose 3 mg/kg oral): 2.1%
- Serum Iron Inhibition (%) at 3 h (anemic Wistar rats; Dose 10 mg/kg oral): 42.6** %
- Serum Iron Inhibition (%) at 3 h (anemic Wistar rats; Dose 30 mg/kg oral): 64.9*** %

Compound: O=C(NCc1ncccc1F)c1cnc(C2CN(CCc3nc4ccccc4[nH]3)C2)o1 [Example Compound No. 2]
- Decrease in RDW by 20/60 mg/kg compound (Hbb th3/+ mice; [1]): 0%
- Decrease in ^58Fe spleen iron content by 20/60 mg/kg compound (Hbb th3/+ mice; [1]): 13%
- Decrease in blood reticulocyte counts by 20/60 mg/kg compound (Hbb th3/+ mice; [1]): 0%
- Decrease in leukocyte counts by 20/60 mg/kg compound (Hbb th3/+ mice; [1]): 29%
- Decrease in relative spleen weight by 20/60 mg/kg (Hbb th3/+ mice; [1]): 16%
- Decrease in serum erythropoietin by 20/60 mg/kg compound (Hbb th3/+ mice; [1]): 4%
- Increase in blood erythrocyte counts by 20/60 mg/kg compound (Hbb th3/+ mice; [1]): 0%
- Increase in hematocrit by 20/60 mg/kg compound (Hbb th3/+ mice; [1]): 0%
- Prevention of liver ^58Fe loading by 20/60 mg/kg (Hbb th3/+ mice; [1]): 14%
- Correction of anemia at day 20-48 by 20/60 mg/kg (Hbb th3/+ mice; 20 mg/kg twice daily): 3 g/L
- Decrease in serum iron by 20/60 mg/kg compound (Hbb th3/+ mice; 20 mg/kg): 50%
- Decrease in RDW by 20/60 mg/kg compound (Hbb th3/+ mice; [2]): 15%
- Decrease in ^58Fe spleen iron content by 20/60 mg/kg compound (Hbb th3/+ mice; [2]): 40%
- Decrease in blood reticulocyte counts by 20/60 mg/kg compound (Hbb th3/+ mice; [2]): 11%
- Decrease in leukocyte counts by 20/60 mg/kg compound (Hbb th3/+ mice; [2]): 55%
- Decrease in relative spleen weight by 20/60 mg/kg (Hbb th3/+ mice; [2]): 47%
- Decrease in serum erythropoietin by 20/60 mg/kg compound (Hbb th3/+ mice; [2]): 27%
- Increase in blood erythrocyte counts by 20/60 mg/kg compound (Hbb th3/+ mice; [2]): 33%
- Increase in hematocrit by 20/60 mg/kg compound (Hbb th3/+ mice; [2]): 15%
- Prevention of liver ^58Fe loading by 20/60 mg/kg (Hbb th3/+ mice; [2]): 47%
- Correction of anemia at day 20-48 by 20/60 mg/kg (Hbb th3/+ mice; 60 mg/kg twice daily): 11 g/L
- Decrease in serum iron by 20/60 mg/kg compound (Hbb th3/+ mice; 60 mg/kg): 69%
- Decreased in ROS in bone marrow erythrocytes (Hbb th3/+ mice; [3]): 13%
- Decreased in ROS in bone marrow erythrocytes (Hbb th3/+ mice; [4]): 65%
- Serum Iron Inhibition (%) at 3 h (anemic Wistar rats; Dose 3 mg/kg oral): −3%
- Serum Iron Inhibition (%) at 3 h (anemic Wistar rats; Dose 10 mg/kg oral): 29** %
- Serum Iron Inhibition (%) at 3 h (anemic Wistar rats; Dose 30 mg/kg oral): 57*** %

Compound: O=C(NCc1ncccc1F)c1csc(CCNCc2nc3ccccc3[nH]2)n1 [Example Compound No. 40]
- Decrease in ^58Fe spleen iron content by 20/60 mg/kg compound (Hbb th3/+ mice; [1]): 19%
- Decrease in blood reticulocyte counts by 20/60 mg/kg compound (Hbb th3/+ mice; [1]): 19%
- Decrease in leukocyte counts by 20/60 mg/kg compound (Hbb th3/+ mice; [1]): 0%
- Increase in blood erythrocyte counts by 20/60 mg/kg compound (Hbb th3/+ mice; [1]): 2%
- Increase in hematocrit by 20/60 mg/kg compound (Hbb th3/+ mice; [1]): 0%
- Prevention of liver ^58Fe loading by 20/60 mg/kg (Hbb th3/+ mice; [1]): 20%
- Correction of anemia at day 20-48 by 20/60 mg/kg (Hbb th3/+ mice; 20 mg/kg twice daily): 6 g/L
- Decrease in serum iron by 20/60 mg/kg compound (Hbb th3/+ mice; 20 mg/kg): 28%
- Decrease in ^58Fe spleen iron content by 20/60 mg/kg compound (Hbb th3/+ mice; [2]): 51%
- Decrease in blood reticulocyte counts by 20/60 mg/kg compound (Hbb th3/+ mice; [2]): 43%
- Increase in blood erythrocyte counts by 20/60 mg/kg compound (Hbb th3/+ mice; [2]): 22%
- Increase in hematocrit by 20/60 mg/kg compound (Hbb th3/+ mice; [2]): 1%
- Prevention of liver ^58Fe loading by 20/60 mg/kg (Hbb th3/+ mice; [2]): 48%
- Correction of anemia at day 20-48 by 20/60 mg/kg (Hbb th3/+ mice; 60 mg/kg twice daily): 13 g/L
- Decrease in serum iron by 20/60 mg/kg compound (Hbb th3/+ mice; 60 mg/kg): 58%
- Serum Iron Inhibition (%) at 3 h (anemic Wistar rats; Dose 10 mg/kg oral): 32** %
- Serum Iron Inhibition (%) at 3 h (anemic Wistar rats; Dose 30 mg/kg oral): 53*** %
- Serum Iron Inhibition (%) at 3 h (anemic Wistar rats; Dose 100 mg/kg oral): 97*** %
